Experimental data taken from US7935819B2, “Cyclic urea derivatives, preparation thereof and pharmaceutical use thereof as kinase inhibitors” (Aventis Pharma S.A., priority 2006, dated 2011).
Where two headings read alike, the source gives them in different places.

Key:
[1] = biological target: T1, IGF-1R (human cytoplasmic domain fused with GST) (Homo sapiens, UniProt P08069); assay: Kinase IGF-1R test (Test A): inhibition of autophosphorylation of the enzyme, HTRF; type: biochemical; settings: 120 μM ATP
T1 construct: The human cytoplasmic domain of IGF-1R was cloned by fusion with glutathione S-transferase (GST); made in house; host or cells: SF21 insect cells (baculovirus, pFastBac-GST)
T1 sequence (P08069 960-1367 limits assumed): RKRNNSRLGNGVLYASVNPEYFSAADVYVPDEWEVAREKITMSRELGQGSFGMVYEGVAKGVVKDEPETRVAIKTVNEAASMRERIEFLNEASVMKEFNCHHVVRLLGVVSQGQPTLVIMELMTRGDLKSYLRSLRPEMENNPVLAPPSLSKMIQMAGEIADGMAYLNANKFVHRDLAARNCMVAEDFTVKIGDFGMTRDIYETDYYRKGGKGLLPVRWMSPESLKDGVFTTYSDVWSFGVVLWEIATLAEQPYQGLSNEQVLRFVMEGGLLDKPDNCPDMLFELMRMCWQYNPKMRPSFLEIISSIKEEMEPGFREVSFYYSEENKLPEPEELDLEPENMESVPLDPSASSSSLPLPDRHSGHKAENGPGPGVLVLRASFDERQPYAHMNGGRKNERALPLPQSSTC
Procedure: A) Experimental Protocol for the Kinase IGF-1R Test:
The inhibitory activity of the compounds on IGF1R is determined by measuring the inhibition of autophosphorylation of the enzyme using a time-resolved fluorescence test (HTRF). The human cytoplasmic domain of IGF-1R was cloned by fusion with glutathione S-transferase (GST) in the baculovirus expression vector pFastBac-GST. The protein is expressed in the SF21 cells and purified to about 80% homogeneity. For the enzymatic test, the test compound at 10 mM dissolved in DMSO is diluted in 1/3 steps in a 50 mM Hepes, pH 7.5, 5 mM MnCl2, 50 mM NaCl, 3% Glycerol, 0.025% Tween 20 buffer. To measure the inhibition, the successive dilutions of the compound are preincubated for 30 minutes and 90 minutes in the presence of 5 nM of enzyme, the final DMSO concentration not exceeding 1%. The enzymatic reaction is initiated to have a final ATP concentration of 120 μM, and is stopped after 5 minutes by addition of 100 mM Hepes, pH 7.0 buffer containing 0.4 M of potassium fluoride, 133 mM EDTA, 0.1% BSA, the XL665-labelled antibody anti-GST and the anti-phosphotyrosine antibody conjugated to europium cryptate Eu—K (Cis-Bio Int.). The characteristics of the two fluorophores, XL-665 and Eu—K, are available in G. Mathis et al., Anticancer Research, 1997, 17, pages 3011-3014. The energy transfer between the excited europium cryptate to the acceptor XL665 is proportional to the degree of autophosphorylation of IGF-1R. The specific long-lasting signal of XL-665 is measured in a GENios Pro TECAN plate counter. The inhibition of autophosphorylation of IGF-1R at time 30 minutes and 90 minutes with the test compounds of the invention is calculated relative to a 1% in DMSO control, whose activity is measured in the absence of compound. The curve representing the percentage of inhibition as a function of the log of the concentration is established to determine the concentration corresponding to 50% inhibition (IC50).

IGF1R in MCF-7 cells = biological target: T2, IGF1R in MCF-7 cells (Homo sapiens, UniProt P08069); assay: Autophosphorylation of IGF-1R in MCF7 cells after stimulation with IGF-1 (Test B), ELISA; type: cell-based; settings: compound added one hour before IGF1 stimulation (10 minutes)
T2 construct: endogenous in cells; host or cells: MCF-7 cells
T2 sequence (P08069 31-1367): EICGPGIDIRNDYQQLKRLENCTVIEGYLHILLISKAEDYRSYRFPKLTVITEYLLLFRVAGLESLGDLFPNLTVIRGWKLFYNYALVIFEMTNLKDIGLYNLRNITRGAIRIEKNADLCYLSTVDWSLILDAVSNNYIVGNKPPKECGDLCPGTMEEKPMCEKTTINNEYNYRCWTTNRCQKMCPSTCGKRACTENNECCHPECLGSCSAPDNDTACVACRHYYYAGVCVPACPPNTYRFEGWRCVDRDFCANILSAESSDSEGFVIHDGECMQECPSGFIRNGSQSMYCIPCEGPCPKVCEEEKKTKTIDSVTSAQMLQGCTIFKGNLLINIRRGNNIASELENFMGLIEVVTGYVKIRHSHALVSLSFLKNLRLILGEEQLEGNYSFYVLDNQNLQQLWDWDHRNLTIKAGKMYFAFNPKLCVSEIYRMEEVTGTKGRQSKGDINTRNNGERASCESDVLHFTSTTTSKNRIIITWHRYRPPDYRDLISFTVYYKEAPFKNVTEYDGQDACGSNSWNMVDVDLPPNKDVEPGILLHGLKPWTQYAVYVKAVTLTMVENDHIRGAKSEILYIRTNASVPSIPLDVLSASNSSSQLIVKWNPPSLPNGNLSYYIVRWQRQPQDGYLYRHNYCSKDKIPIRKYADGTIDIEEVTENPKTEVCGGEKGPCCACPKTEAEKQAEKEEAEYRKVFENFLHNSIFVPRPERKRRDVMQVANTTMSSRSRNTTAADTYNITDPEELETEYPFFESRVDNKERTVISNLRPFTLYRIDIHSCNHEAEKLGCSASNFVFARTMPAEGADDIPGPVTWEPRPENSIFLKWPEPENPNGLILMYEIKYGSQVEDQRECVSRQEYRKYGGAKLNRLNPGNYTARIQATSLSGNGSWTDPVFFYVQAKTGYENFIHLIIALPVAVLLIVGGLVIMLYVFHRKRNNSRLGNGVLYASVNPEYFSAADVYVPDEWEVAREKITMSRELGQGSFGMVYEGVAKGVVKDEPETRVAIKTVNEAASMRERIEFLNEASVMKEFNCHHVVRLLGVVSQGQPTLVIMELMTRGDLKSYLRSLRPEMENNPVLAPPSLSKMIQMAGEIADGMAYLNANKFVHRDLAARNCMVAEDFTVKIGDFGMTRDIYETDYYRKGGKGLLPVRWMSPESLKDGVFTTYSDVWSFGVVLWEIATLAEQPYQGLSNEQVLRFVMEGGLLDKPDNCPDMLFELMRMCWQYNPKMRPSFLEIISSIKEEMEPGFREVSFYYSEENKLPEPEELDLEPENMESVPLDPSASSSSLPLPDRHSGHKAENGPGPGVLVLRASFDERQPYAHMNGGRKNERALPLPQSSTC
Procedure: B) Measurement of the Autophosphorylation of IGF-1r in MCF7 Cells after Stimulation with IGF-1
Cell Culturing and Execution of the Test:
The autophosphorylation of IGF1R in the IGF1-induced cells is evaluated by means of an ELISA technique (Enzyme Linked ImmunoSorbent Assay). The MCF-7 are seeded at 60 000 cells per well in 6-well plates and incubated at 37° C., 5% CO2 in medium containing 10% serum. After one night in 10% serum, the cells are deprived of serum for 24 hours. The compounds are added to the medium one hour before stimulation with IGF1. After 10 minutes of stimulation with IGF1, the cells are lysed with a buffer (Hepes 50 mM pH 7.6, Triton X100 1%, orthovanadate 2 mM, protease inhibitor cocktail). The cell lysates are incubated on a 96-well plate precoated with an anti-IGF1R antibody, followed by incubation with an anti-phosphotyrosine antibody coupled to the enzyme peroxidase. The level of peroxidase activity (measured by OD with a luminescent substrate) reflects the phosphorylation status of the receptor.
(§1) (i) The tests are performed in duplicate and the mean of the two tests is calculated.
(§2) (ii) The value of the signal of the maximum response is calculated from the positive control: cells stimulated with IGF1 without compound.
(§3) (iii) Value of the signal of the minimum response is calculated from the negative control: cells not stimulated with IGF1 without compound.
(§4) (iv) By using these values as maximum (100%) and minimum (0%), respectively, the data were normalized so as to give a percentage of the maximum response.
(§5) (v) A curve of dose response is plotted and the IC50 (the concentration of which the compound induces a 50% decrease in the signal) of the compound is calculated by non-linear regression analysis.

[2] = biological target: MEF-IGF1R cells (stable clone transfected with hIGF-1R) (Homo sapiens, UniProt P08069); assay: Proliferation/viability of MEF-IGF1R (Test C), [14C]thymidine incorporation; type: cell-based; settings: rhIGF1 100 ng/mL, 72 hours, read-out: Test C IC50
Sequence of MEF-IGF1R cells (stable clone transfected with hIGF-1R) (P08069 whole entry, change not shown): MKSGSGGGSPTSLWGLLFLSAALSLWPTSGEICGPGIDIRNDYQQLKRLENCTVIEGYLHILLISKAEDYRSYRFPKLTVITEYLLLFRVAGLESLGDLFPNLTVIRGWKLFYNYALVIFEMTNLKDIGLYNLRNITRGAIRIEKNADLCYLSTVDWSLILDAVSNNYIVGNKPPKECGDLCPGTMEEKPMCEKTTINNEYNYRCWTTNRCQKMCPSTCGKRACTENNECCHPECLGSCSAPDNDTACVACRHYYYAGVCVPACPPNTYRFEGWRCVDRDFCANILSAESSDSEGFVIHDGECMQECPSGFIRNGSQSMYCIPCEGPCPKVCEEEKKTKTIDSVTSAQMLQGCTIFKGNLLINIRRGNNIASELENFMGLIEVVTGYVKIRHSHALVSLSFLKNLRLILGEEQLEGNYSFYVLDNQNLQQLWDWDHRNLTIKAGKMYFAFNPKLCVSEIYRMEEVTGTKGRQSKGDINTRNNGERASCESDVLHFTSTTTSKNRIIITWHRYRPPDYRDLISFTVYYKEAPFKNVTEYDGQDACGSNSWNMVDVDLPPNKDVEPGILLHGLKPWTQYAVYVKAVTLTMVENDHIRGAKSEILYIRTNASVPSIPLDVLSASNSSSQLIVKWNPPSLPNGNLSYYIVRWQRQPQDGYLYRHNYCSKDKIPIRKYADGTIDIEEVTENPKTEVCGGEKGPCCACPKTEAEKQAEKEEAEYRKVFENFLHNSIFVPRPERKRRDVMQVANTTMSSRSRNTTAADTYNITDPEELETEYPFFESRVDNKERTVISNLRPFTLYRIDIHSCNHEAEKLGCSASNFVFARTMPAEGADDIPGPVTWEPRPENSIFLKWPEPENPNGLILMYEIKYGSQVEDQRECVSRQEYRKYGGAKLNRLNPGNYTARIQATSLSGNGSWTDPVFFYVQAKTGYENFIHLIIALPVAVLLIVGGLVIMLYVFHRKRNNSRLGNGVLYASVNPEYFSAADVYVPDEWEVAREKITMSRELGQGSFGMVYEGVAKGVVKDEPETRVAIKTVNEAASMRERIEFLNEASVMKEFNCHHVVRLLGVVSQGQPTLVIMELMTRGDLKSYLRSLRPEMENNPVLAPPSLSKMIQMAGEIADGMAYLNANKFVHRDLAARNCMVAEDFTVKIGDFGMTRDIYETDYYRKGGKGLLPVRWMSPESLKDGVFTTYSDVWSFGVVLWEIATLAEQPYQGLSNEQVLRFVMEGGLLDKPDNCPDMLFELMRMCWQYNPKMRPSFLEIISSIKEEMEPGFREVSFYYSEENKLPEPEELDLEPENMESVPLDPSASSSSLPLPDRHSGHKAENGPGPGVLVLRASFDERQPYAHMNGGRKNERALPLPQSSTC
Procedure: C) Measurement of the Proliferation/Viability of MEF-IGF1R
Cell culture: the MEF-IGF1R cells (stable clone of cells transfected with the receptor hIGF-1R) are cultured at 37° C. under 5% CO2 in EMEM medium containing 10% FCS.
Test procedure: the cells are seeded at 5000 cells per well in 96-well Cytostar plates (Amersham) with 0.2 mL of EMEM culture medium at 37° C. for 18 hours. The cells are then washed twice with EMEM medium and left to culture without serum for 24 hours. The compounds are then added at various concentrations in the presence of rhIGF1 (100 ng/mL) and 0.1 μCi of Thymidine [^14C] (specific activity ˜50 mCi/mmol) to give 0.2 mL of volume per well. After incubation for 72 hours in the presence of the compound, at 37° C. under 5% CO2, the incorporation of Thymidine [^14C] is measured by counting the radioactivity on a Microbeta trilux counter (Perkin-Elmer). The IC50 is determined from 10 increasing concentrations of the compound.
as §1, §2, §3, §4, §5

[3] = preincubation with enzyme 30 minutes, read-out: Test A 30′ IC50
[4] = preincubation with enzyme 90 minutes, read-out: Test A 90′ IC50

Compound | IC50 [1, 3] | IC50 [1, 4] | IC50 (IGF1R in MCF-7 cells) | GI50 [2]
CC(C)(C)c1ccc(N2C(=O)N(Cc3ccnc(NC(=O)Nc4cccnc4)c3)C(C)(C)C2=O)cc1 [Example 31O, 1-(4-{[3-(4-tert-butylphenyl)-5,5-dimethyl-2,4-dioxoimidazolidin-1-yl]methyl}pyridin-2-yl)-3-pyridin-3-ylurea] | > 100 nM | > 100 nM | 10 to 100 nM | 10 to 100 nM
CC(C)(C)c1ccc(N2C(=O)N(Cc3ccnc(Nc4ccc(Cl)nc4)c3)C(C)(C)C2=O)cc1 [Example 31L, 3-(4-tert-butylphenyl)-1-({2-[(6-chloropyridin-3-yl)amino]pyridin-4-yl}methyl)-5,5-dimethylimidazolidine-2,4-dione] | > 100 nM | 10 to 100 nM | 10 to 100 nM | 10 to 100 nM
CC(C)NCC(=O)N1CC(C)(C)c2ccc(N3C(=O)N(Cc4ccnc(Nc5cccnc5)c4)C(C)(C)C3=O)cc21 [Example 31D, 3-[1-(N-isopropylglycyl)-3,3-dimethyl-2,3-dihydro-1H-indol-6-yl]-5,5-dimethyl-1-{[2-(pyridin-3-ylamino)pyridin-4-yl]methyl}imidazolidine-2,4-dione] | > 100 nM | 10 to 100 nM | 10 to 100 nM | 10 to 100 nM
CC(C)NCC(=O)N1CC(C)(C)c2ccc(N3C(=O)N(Cc4ccnc(NC(=O)N(C)C)c4)C(C)(C)C3=O)cc21 [Example 31E, 3-[4-({3-[1-(N-isopropylglycyl)-3,3-dimethyl-2,3-dihydro-1H-indol-6-yl]-5,5-dimethyl-2,4-dioxoimidazolidin-1-yl}methyl)pyridin-2-yl]-1,1-dimethylurea] | > 100 nM | > 100 nM | 10 to 100 nM | 10 to 100 nM
CN(C)CC(=O)N1CC(C)(C)c2ccc(N3C(=O)N(Cc4ccnc(NC(=O)N(C)C)c4)C(C)(C)C3=O)cc21 [Example 31C, 3-[4-({3-[1-(N,N-dimethylglycyl)-3,3-dimethyl-2,3-dihydro-1H-indol-6-yl]-5,5-dimethyl-2,4-dioxoimidazolidin-1-yl}methyl)pyridin-2-yl]-1,1-dimethylurea] | > 100 nM | > 100 nM | 10 to 100 nM | 10 to 100 nM
CC(C)(C)c1ccc(N2C(=O)N(Cc3ccnc(Nc4cccc(CN5CCCC5)c4)c3)C(C)(C)C2=O)cc1 [Example 31G, 3-(4-tert-butylphenyl)-5,5-dimethyl-1-[(2-{[3-(pyrrolidin-1-ylmethyl)phenyl]amino}pyridin-4-yl)methyl]imidazolidine-2,4-dione] | 10 to 100 nM | < 10 nM | 10 to 100 nM | < 10 nM
CC(C)(C)c1ccc(N2C(=O)N(Cc3ccnc(NC4CC4)c3)C(C)(C)C2=O)cc1 [Example 31J, 3-(4-tert-butylphenyl)-1-{[2-(cyclopropylamino)pyridin-4-yl]methyl}-5,5-dimethylimidazolidine-2,4-dione] | 10 to 100 nM | < 10 nM | 10 to 100 nM | 10 to 100 nM

Second part, led by results:

IC50 [1, 3] | IC50 [1, 4] | IC50 (IGF1R in MCF-7 cells) | Compound | GI50 [2]
10 to 100 nM | < 10 nM | 10 to 100 nM | CC(C)(C)c1ccc(N2C(=O)N(Cc3ccnc(Nc4ccc(CN5CCCC5)cc4)c3)C(C)(C)C2=O)cc1 [Example 31F, 3-(4-tert-butylphenyl)-5,5-dimethyl-1-[(2-{[4-(pyrrolidin-1-ylmethyl)phenyl]amino}pyridin-4-yl)methyl]imidazolidine-2,4-dione] | < 10 nM
10 to 100 nM | 10 to 100 nM | 10 to 100 nM | CCCCNC(=O)Nc1cc(CN2C(=O)N(c3ccc(C(C)(C)C)cc3)C(=O)C2(C)C)ccn1 [Example 28, 1-butyl-3-(4-{[3-(4-tert-butylphenyl)-5,5-dimethyl-2,4-dioxoimidazolidin-1-yl]methyl}pyridin-2-yl)urea] | > 100 nM
10 to 100 nM | 10 to 100 nM | < 10 nM | CC(C)(C)c1ccc(N2C(=O)N(Cc3ccnc(NC(=O)N4CCCC4)c3)C(C)(C)C2=O)cc1 [Example 19, N-(4-{[3-(4-tert-butylphenyl)-5,5-dimethyl-2,4-dioxoimidazolidin-1-yl]methyl}pyridin-2-yl)pyrrolidine-1-carboxamide] | 10 to 100 nM
10 to 100 nM | 10 to 100 nM | 10 to 100 nM | CC(C)(C)c1ccc(N2C(=O)N(Cc3ccnc(NC(=O)NC4CC4)c3)C(C)(C)C2=O)cc1 [Example 13, 1-(4-{[3-(4-tert-butylphenyl)-5,5-dimethyl-2,4-dioxoimidazolidin-1-yl]methyl}pyridin-2-yl)-3-cyclopropylurea] | 10 to 100 nM
10 to 100 nM | < 10 nM | < 10 nM | COC(=O)Nc1cc(CN2C(=O)N(c3ccc(C(C)(C)C)cc3)C(=O)C2(C)C)ccn1 [Example 31Q, methyl (4-{[3-(4-tert-butylphenyl)-5,5-dimethyl-2,4-dioxoimidazolidin-1-yl]methyl}pyridin-2-yl)carbamate] | 10 to 100 nM
